In PubChem BioAssay (NCI):
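Protocol summary: plate cells (96-well), add compound at 5 concentrations, incubate 48 h, interpolate endpoints linearly. Here, GI50 denotes the concentration required for 50% inhibition of growth. TGI: concentration producing complete growth inhibition.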

Tests used:
Assay in all cases: inhibition of tumour cell growth, NCI panel, 48 h
[1] = test system: SF-295 CNS
[2] = test system: HCT-15 colon
[3] = test system: CAKI-1 renal
[4] = test system: SR leukemia
[5] = test system: RPMI-8226 leukemia
[6] = test system: ACHN renal
[7] = test system: LOX IMVI melanoma
[8] = test system: HL-60(TB) leukemia
[9] = test system: SF-268 CNS
[10] = test system: OVCAR-4 ovarian
[11] = test system: SNB-75 CNS
[12] = test system: NCI-H460 lung
[13] = test system: NCI-H522 lung
[14] = test system: EKVX NSCLC
[15] = test system: HCC-2998 colon
[16] = test system: HCT-116 colon
[17] = test system: SN12C renal
[18] = test system: UACC-257 melanoma
[19] = test system: SF-539 CNS
[20] = test system: TK-10 renal
[21] = test system: 786-0 renal
[22] = test system: KM12 colon
[23] = test system: HOP-92 NSCLC
[24] = test system: NCI/ADR-RES ovarian
[25] = test system: SNB-19 CNS
[26] = test system: UACC-62 melanoma
[27] = test system: HT29 colon
[28] = test system: UO-31 renal
[29] = test system: MCF7 breast
[30] = test system: M14 melanoma
[31] = test system: OVCAR-3 ovarian
[32] = test system: A498 renal
[33] = test system: HOP-62 NSCLC
[34] = test system: CCRF-CEM leukemia
[35] = test system: NCI-H23 lung
[36] = test system: RXF 393 renal
[37] = test system: PC-3 prostate
[38] = test system: SK-MEL-28 melanoma
[39] = test system: COLO 205 colon
[40] = test system: SK-MEL-5 melanoma
[41] = test system: MDA-MB-435
[42] = test system: MALME-3M melanoma
[43] = test system: SK-MEL-2 melanoma
[44] = test system: BT-549 breast
[45] = test system: MDA-MB-231 breast
[46] = test system: IGROV1 ovarian
[47] = test system: OVCAR-8 ovarian
[48] = test system: HS 578T breast
[49] = test system: SW-620 colon
[50] = test system: U251 CNS
[51] = test system: MOLT-4 leukemia
[52] = test system: SK-OV-3 ovarian
[53] = test system: OVCAR-5 ovarian
[54] = test system: NCI-H226 lung
[55] = test system: A549 NSCLC
[56] = test system: T-47D breast
[57] = test system: DU-145 prostate
[58] = test system: K-562 leukemia

SMILES: C=C(C)[C@@H]1CC[C@]2(C(=O)NCCCN)CC[C@]3(C)[C@H](CC[C@@H]4[C@@]5(C)CC[C@H](O)C(C)(C)[C@@H]5CC[C@]43C)[C@@H]12
- GI50 [1]: 22.6 µM
- TGI [1]: 67.3 µM
- GI50 [2]: 21.7 µM
- TGI [2]: > 100 µM
- GI50 [3]: 21.9 µM
- TGI [3]: > 100 µM
- GI50 [4]: 9.05 µM
- TGI [4]: > 100 µM
- GI50 [5]: 17.2 µM
- TGI [5]: 92.6 µM
- GI50 [6]: 21.7 µM
- TGI [6]: 59.9 µM
- GI50 [7]: 25.5 µM
- TGI [7]: > 100 µM
- GI50 [8]: 16.5 µM
- TGI [8]: 50.7 µM
- GI50 [9]: 23 µM
- TGI [9]: 63.8 µM
- GI50 [10]: 25.6 µM
- TGI [10]: > 100 µM
- GI50 [11]: 32.1 µM
- TGI [11]: > 100 µM
- GI50 [12]: 14 µM
- TGI [12]: > 100 µM
- GI50 [13]: 21 µM
- TGI [13]: 68.9 µM
- GI50 [14]: 23.3 µM
- TGI [14]: 76.1 µM
- GI50 [15]: 21.4 µM
- TGI [15]: 77.1 µM
- GI50 [16]: 13.9 µM
- TGI [16]: 62.4 µM
- GI50 [17]: 20.8 µM
- TGI [17]: 82.6 µM
- GI50 [18]: 20.6 µM
- TGI [18]: 55.3 µM
- GI50 [19]: 17.9 µM
- TGI [19]: 52 µM
- GI50 [20]: 23.9 µM
- TGI [20]: 60.4 µM
- GI50 [21]: 23.2 µM
- TGI [21]: 63.4 µM
- GI50 [22]: 17.3 µM
- TGI [22]: 52.9 µM
- GI50 [23]: 10.8 µM
- TGI [23]: 35.4 µM
- GI50 [24]: 24.8 µM
- TGI [24]: 81.2 µM
- GI50 [25]: 24.7 µM
- TGI [25]: 84.5 µM
- GI50 [26]: 27.4 µM
- TGI [26]: 93.2 µM
- GI50 [27]: 6.95 µM
- TGI [27]: 38.4 µM
- GI50 [28]: 38.9 µM
- TGI [28]: > 100 µM
- GI50 [29]: 10.7 µM
- TGI [29]: 95.8 µM
- GI50 [30]: 24.7 µM
- TGI [30]: > 100 µM
- GI50 [31]: 15.7 µM
- TGI [31]: 39.5 µM
- GI50 [32]: 22.9 µM
- TGI [32]: 49.2 µM
- GI50 [33]: 18.3 µM
- TGI [33]: 88.4 µM
- GI50 [34]: 22.1 µM
- TGI [34]: > 100 µM
- GI50 [35]: 22.6 µM
- TGI [35]: 87.1 µM
- GI50 [36]: 17 µM
- TGI [36]: 44.1 µM
- GI50 [37]: 12.6 µM
- TGI [37]: 37.8 µM
- GI50 [38]: 22.1 µM
- TGI [38]: 57.8 µM
- GI50 [39]: 21 µM
- TGI [39]: > 100 µM
- GI50 [40]: 19.4 µM
- TGI [40]: 48.6 µM
- GI50 [41]: 28.7 µM
- TGI [41]: > 100 µM
- GI50 [42]: 23.3 µM
- TGI [42]: 94.1 µM
- GI50 [43]: 27.3 µM
- TGI [43]: 85.8 µM
- GI50 [44]: 23.8 µM
- TGI [44]: 75.9 µM
- GI50 [45]: 21.1 µM
- TGI [45]: 76.2 µM
- GI50 [46]: 21.5 µM
- TGI [46]: > 100 µM
- GI50 [47]: 27.7 µM
- TGI [47]: 87.7 µM
- GI50 [48]: 40.5 µM
- TGI [48]: > 100 µM
- GI50 [49]: 22.5 µM
- TGI [49]: > 100 µM
- GI50 [50]: 17.7 µM
- TGI [50]: 49.4 µM
- GI50 [51]: 12.9 µM
- TGI [51]: 52.8 µM
- GI50 [52]: 17.7 µM
- TGI [52]: 49.4 µM
- GI50 [53]: 14.8 µM
- TGI [53]: 31.3 µM
- GI50 [54]: 21.2 µM
- TGI [54]: > 100 µM
- GI50 [55]: 19.6 µM
- TGI [55]: 66.5 µM
- GI50 [56]: 13.1 µM
- TGI [56]: 53.2 µM
- GI50 [57]: 17.5 µM
- TGI [57]: 37.1 µM
- GI50 [58]: 9.84 µM
- TGI [58]: 31.3 µM

SMILES: CCCN1C(=O)/C(=c2\sc3n(c2=O)C2C(NN=3)N(CC)C(=O)N2CC)c2ccccc21 (configuration not stated)
- GI50 [1]: 0.409 µM
- TGI [1]: 10.7 µM
- GI50 [2]: 0.416 µM
- TGI [2]: > 52.4 µM
- GI50 [3]: 0.445 µM
- TGI [3]: 16.1 µM
- GI50 [4]: 0.422 µM
- TGI [4]: 21.9 µM
- GI50 [5]: 0.427 µM
- TGI [5]: 6.48 µM
- GI50 [6]: 0.625 µM
- TGI [6]: 17.1 µM
- GI50 [7]: 0.629 µM
- TGI [7]: 18.8 µM
- GI50 [8]: 0.3 µM
- TGI [8]: 1.03 µM
- GI50 [9]: 0.959 µM
- TGI [9]: 19 µM
- GI50 [10]: 0.933 µM
- TGI [10]: 12.8 µM
- GI50 [11]: 0.199 µM
- TGI [11]: 0.79 µM
- GI50 [12]: 0.411 µM
- TGI [12]: 12.1 µM
- GI50 [13]: 0.356 µM
- TGI [13]: 4.51 µM
- GI50 [14]: 0.729 µM
- TGI [14]: > 57.2 µM
- GI50 [15]: 1.56 µM
- TGI [15]: 19.6 µM
- GI50 [16]: 0.404 µM
- TGI [16]: 12.4 µM
- GI50 [17]: 1.26 µM
- TGI [17]: 20.1 µM
- GI50 [18]: 1.22 µM
- TGI [18]: 14 µM
- GI50 [19]: 0.258 µM
- TGI [19]: 0.802 µM
- GI50 [20]: 3.62 µM
- TGI [20]: 22.3 µM
- GI50 [21]: 0.89 µM
- TGI [21]: 16.5 µM
- GI50 [22]: 0.41 µM
- TGI [22]: 13.8 µM
- GI50 [23]: 0.885 µM
- TGI [23]: 16.3 µM
- GI50 [24]: 0.366 µM
- TGI [24]: 10.9 µM
- GI50 [25]: 0.765 µM
- TGI [25]: 23.8 µM
- GI50 [26]: 0.489 µM
- TGI [26]: 17.4 µM
- GI50 [27]: 0.347 µM
- TGI [27]: 12.2 µM
- GI50 [28]: 0.744 µM
- TGI [28]: 17.6 µM
- GI50 [29]: 0.396 µM
- TGI [29]: > 32.9 µM
- GI50 [30]: 0.413 µM
- TGI [30]: 12.4 µM
- GI50 [31]: 0.289 µM
- TGI [31]: 0.8 µM
- GI50 [32]: 0.188 µM
- TGI [32]: 0.77 µM
- GI50 [33]: 0.562 µM
- TGI [33]: 16 µM
- GI50 [34]: 0.423 µM
- TGI [34]: > 100 µM
- GI50 [35]: 0.792 µM
- TGI [35]: 15.8 µM
- GI50 [36]: 0.277 µM
- TGI [36]: 3.23 µM
- GI50 [37]: 0.453 µM
- TGI [37]: > 37.2 µM
- GI50 [38]: 1.18 µM
- TGI [38]: 29.1 µM
- GI50 [39]: 0.665 µM
- TGI [39]: 10.4 µM
- GI50 [40]: 0.369 µM
- TGI [40]: 3.15 µM
- GI50 [41]: 0.196 µM
- TGI [41]: 0.445 µM
- GI50 [42]: 0.612 µM
- TGI [42]: 25.1 µM
- GI50 [43]: 0.799 µM
- TGI [43]: 15.4 µM
- GI50 [44]: 1.66 µM
- TGI [44]: 13.2 µM
- GI50 [45]: 1.41 µM
- TGI [45]: 12.4 µM
- GI50 [46]: 0.876 µM
- TGI [46]: 14.1 µM
- GI50 [47]: 0.688 µM
- TGI [47]: 12.3 µM
- GI50 [48]: 0.386 µM
- TGI [48]: > 39.8 µM
- GI50 [49]: 0.409 µM
- TGI [49]: > 100 µM
- GI50 [50]: 0.485 µM
- TGI [50]: 12.3 µM
- GI50 [51]: 0.811 µM
- TGI [51]: > 100 µM
- GI50 [52]: 0.737 µM
- TGI [52]: 14.9 µM
- GI50 [53]: 1.14 µM
- TGI [53]: 24.1 µM
- GI50 [54]: 1.45 µM
- TGI [54]: > 33 µM
- GI50 [55]: 0.854 µM
- TGI [55]: 16.5 µM
- GI50 [56]: 0.438 µM
- TGI [56]: > 88.7 µM
- GI50 [57]: 0.421 µM
- TGI [57]: 11 µM
- GI50 [58]: 0.374 µM
- TGI [58]: > 100 µM
